Structures are written as SMILES.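 How tested: cells in 96-well plates exposed to compound for 48 hours at five concentrations. GI50 is the concentration that inhibits growth by half.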 The source made the active and inactive calls. No stated cut-off is given here; in the data, active = GI50 up to about 1.1 µM and inactive = higher.

Some test systems named below: DMS-273; SF-539; MDA-N; U-251; Malme-3M; KM-20L2; UO-31; SR; CAKI-1; SK-MEL-2; SK-MEL-5; SNB-19; Hs-578T; HCT-15; HL-60; HCT-116; PC-3; NCI-H522; LOX IMVI; SF-295.
Assay in all cases: NCI-60 cell line screen, 48 h

With `O=C1/C(=C/c2ccc(O)cc2)CCC1CNc1ccc(Cl)cc1` (stereo not given), the GI50 is 0.836 µM (active) with DMS-273; 6.37 µM (inactive) in the assay on SF-539; 6.53 µM (inactive) in the assay with MDA-N; 5.7 µM (inactive) in the assay on U-251; 4.28 µM (inactive) with Malme-3M; 0.579 µM (active) with KM-20L2. In addition, the GI50 in the assay with UO-31 was 3.01 µM (inactive); with SR it was 0.914 µM (active); in the assay on CAKI-1 it was 1.55 µM (inactive); with SK-MEL-2, 14.4 µM (inactive); in the assay with SK-MEL-5, 4.66 µM (inactive); in the assay with SNB-19, 15.2 µM (inactive). For the same compound, the GI50 was 17.7 µM (inactive) with Hs-578T; 1.3 µM in the assay with HCT-15; 0.861 µM (active) in the assay with HL-60; 1.38 µM (inactive) with HCT-116; 1.42 µM (inactive) in the assay with PC-3; 0.552 µM (active) with NCI-H522. In addition, the GI50 in the assay on LOX IMVI is 0.27 µM (active); in the assay with SF-295, 2.88 µM (inactive).
`C/C(=N\NC(=S)N1CCN(c2ccccn2)CC1)c1nccs1`: the GI50 is 0.351 µM (active) in the assay with DMS-273; 0.524 µM (active) in the assay on SF-539; 0.431 µM (active) in the assay with MDA-N; 0.405 µM (active) in the assay with U-251; 3.82 µM (inactive) in the assay on Malme-3M; < 0.0294 µM (active) with KM-20L2. Also, the GI50 in the assay with UO-31 was 0.516 µM (active); with CAKI-1, 2.42 µM (inactive); in the assay with SK-MEL-2 it was 1.83 µM (inactive); in the assay with SK-MEL-5 it was 0.219 µM (active); in the assay on SNB-19, 1.58 µM (inactive); in the assay on Hs-578T, 2.8 µM (inactive). Further, the GI50 with HCT-15 was 0.071 µM; in the assay with HL-60, 0.01 µM (active); in the assay on HCT-116, < 0.0441 µM (active); in the assay with PC-3, 0.0548 µM (active); with LOX IMVI, 0.405 µM (active); with SF-295, 0.822 µM (active).
Take `N#CC(NNC(=O)c1ccccc1O)c1c(O)ccc2ccccc12` (stereo not given): the GI50 is 2.52 µM (inactive) in the assay with DMS-273; 4.63 µM (inactive) in the assay with SF-539; 5.16 µM (inactive) with MDA-N; 3.79 µM (inactive) in the assay with U-251; 6.27 µM (inactive) with Malme-3M; 17.9 µM (inactive) in the assay on KM-20L2. In addition, the GI50 was 2.92 µM (inactive) in the assay on UO-31; 1.46 µM (inactive) in the assay on SR; 4.18 µM (inactive) with CAKI-1; 3.72 µM (inactive) in the assay on SK-MEL-2; 2.67 µM (inactive) with SK-MEL-5; 13.6 µM (inactive) in the assay on SNB-19. The GI50 in the assay with Hs-578T is 17.3 µM (inactive); with HCT-15 it was 2.89 µM; with HL-60 it was 0.713 µM (active); in the assay on HCT-116, 2.84 µM (inactive); with PC-3, 4.03 µM (inactive); in the assay with NCI-H522, 4.42 µM (inactive). In addition, the GI50 was 0.877 µM (active) in the assay with LOX IMVI and 4.78 µM (inactive) in the assay with SF-295.
For `Cc1cccc(NC(=O)C(=O)C(C2OC(=O)c3ccccc32)[N+](=O)[O-])c1C` (stereo not given), the GI50 in the assay with DMS-273 was 2.59 µM (inactive); in the assay on SF-539, 18.9 µM (inactive); with U-251, 3.64 µM (inactive); with Malme-3M, 3.79 µM (inactive); in the assay with KM-20L2 it was 18.4 µM (inactive); with UO-31, 9.53 µM (inactive). The GI50 with SR is 3.13 µM (inactive); in the assay with CAKI-1, 7.43 µM (inactive); in the assay on SK-MEL-2 it was 5.06 µM (inactive); in the assay on SK-MEL-5, 6.53 µM (inactive); in the assay with SNB-19 it was 16.2 µM (inactive); in the assay with HCT-15 it was 5.21 µM. The GI50 with HL-60 is 2.37 µM (inactive); in the assay on HCT-116, 5.96 µM (inactive); in the assay with NCI-H522, 2 µM (inactive); in the assay with LOX IMVI it was 2.4 µM (inactive); in the assay with SF-295, 14.9 µM (inactive).

Source of the values: ChEMBL document CHEMBL1201862, “PubChem BioAssay data set” (2004).
